In data set [1] the test system is Human articular chondrocytes. Description: MTT assay. It counts as cell-based. The settings on record: human articular chondrocytes in culture, 96 hours. On the procedure: (§1) Chondrocytes were isolated from non-arthritic regions of adult human articular cartilage (N=3 donors) and expanded in tissue culture flasks in DMEM supplemented with 10% calf serum.
The following compounds were provided by Chromadex, Inc. and tested from 1 uM to 500 uM:
Human articular chondrocytes were seeded in 96-well culture trays at a density of 5000 cells/well and incubated with the selected concentration of the anthocyanin for 4 days. At the end of the 4 day period, fresh MTT (3(4,5-Dimethylthiazol-2-yl)-2,5-diphenyltetrazolium bromide) was made in PBS and filter sterilized. MTT (25 ul per well) was added to the cell culture and incubated for 5 hours in the CO2 incubator at 37° C. Yellow MIT is reduced to purple formazan in living cells. The supernatant from each well was removed, and 200 Ill of DMSO was added. A multi-channel pipette was used to dissolve crystals. The microplate was placed back into the incubator at 37° C. for 5 min. Formazan levels in each well were read using a spectrophotometer at 550 nm wavelength.
For orientation: Formazan colour is commonly taken as a measure of viable cells.

Another data set concerns IGF-1. Kind of data set: Real time RT-PCR for IGF-1 in human chondrocytes. The settings on record: for IGF-1 gene expression compared to IL-1 alone: 5 or 50 ug/mL with IL-1, 50 ug/mL alone (FIGS. 3, 4). It counts as cell-based. Here is the method: Chondrocytes were prepared by the enzymatic digestion of knee cartilage, as previously described. (Ahmed S et al., J Nutr 2005 135:20962102). Chondrocytes were plated (1×10^6 cells/mL) in 35 mm culture dishes (BD, Mountain View, Calif.) and cultured in DMEM:F12 (Mediatech, Herndon, Va.) supplemented with 10% FCS and 1% Penn:Strep for 72 hrs at 37° C. and 5% CO2 in a tissue culture incubator. Chondrocytes were serum starved overnight and then exposed to either kuromanin or cyanidin chloride (5 or 50 ug/mL), progrado (2 or 10 ug/mL) alone or in combination in fresh serum-free medium for 1 hr prior to the addition of IL-β.
Total cytoplasmic RNA was prepared from primary cultures of human chondrocytes using a commercially available kit according to the instructions of the manufacturer (Qiagen, Valencia, Calif.). Real time quantitative RT-PCR with internal fluorescent hybridization probes was performed as previously described (Ahmed S et al., ECAM 2005 2:301-8) and the IGF-1 gene expression was quantified using a commercially available Gene Expression Assay kit (Applied Biosystems, CA). Expression of IGF-1 mRNA was normalized to […] mRNA expression. and the results were expressed as fold induction relative to controls.
(Real-time PCR tracks product formation cycle by cycle.)

Data set [2] deals with bovine cartilage explants. Kind of data set: Matrix synthesis (35S uptake) in bovine cartilage explants. It counts as cell-based.
The test system of the next data set is human cartilage explants. Kind of data set: Cartilage breakdown as determined by GAG release in human cartilage explants. It counts as cell-based. The settings on record: for GAG release under basal conditions: high dose (50 ug/mL) alone, no IL-1; for IL-1 induced GAG release (chondroprotection): human cartilage explants, IL-1 plus test agent 5 or 50 ug/mL, 72 hours. From the text:
Human osteoarthritic cartilage samples were procured through the Tissue Procurement Facility of the University Hospitals of Cleveland/Case Western Reserve University and with prior approval of the IRB of University Hospitals of Cleveland. The cartilage samples were obtained from patients undergoing total anthroplasty of the knee due to degenerative joint diseases. In all cases care was taken to use only “macroscopically normal” cartilage samples. No samples were exposed to radiation solely for the purpose of these studies but almost all patients will have received X-rays as part of their clinical presentation during the execution of care. The same donor tissue was not used in all experiments but untreated controls were included in all protocols.
Full thickness cartilage slices (20-25 mg) were dissected from the cartilage using a sterile scalpel blade. Four to five cartilage pieces that were approximately equal in size and weight were transferred to each well of a 24-well, flat bottom plate (Nuns, Denmark) containing DMEM:F12 (1:1) supplemented with antibiotics and 10% FCS and cultured for 24 hours. Subsequently the cartilage explants were cultured overnight in serum free media. The cartilage explants were treated with IL-β alone or with IL-β positive test agents for 72 hours in serum free media. Explants cultured in the absence of IL-β or test agents were used as controls. Additionally, the actions of kuromanin or cyanidin chloride were examined independently of IL-β exposure (5 ng/mL). Where appropriate, explants were exposed to test agents 15 minutes prior to the treatment with IL-β. Total glycosaminoglycan present in the culture supernatant was estimated as described below.
At the end of culture period, the culture medium was collected from each group. A 50 uL aliquot of collected supernatant from each sample was utilized to estimate the total glycosaminoglycan (GAG) concentration by a colorimetric method employing a DMMB as previously described (Miller M J S et al., BMC Complementary and Alternative Med 2006 6; 13). Color intensity was read spectrophotometrically at 535 nm using the Lambda 25 spectrophotometer (Perkin-Elmer, CT) and the values were derived from a standard curve prepared using different concentrations of chondroitin sulfate. Results are expressed as micrograms of glycosaminoglycan released per mg of cartilage tissue.

In data set [3] the test system is Human articular chondrocytes. Kind of data set: Cell viability (calcein AM / ethidium homodimer staining). It counts as cell-based. The settings on record: 96 hours.
Excerpt: as §1
At higher concentrations, the color of the anthocyanin interfered with the spectrophotometer reading; therefore, cell viability was additionally measured with calcein staining as follows: Live and dead cells were simultaneously viewed in situ with a confocal microscope (LSM 510; Zeiss, Wetzlar, Germany), using a fluorescent double stain. Calcein AM (1 uM; Invitrogen, Carlsbad, Calif.), a fluorescein derivative that is metabolized by nonspecific esterase present in viable cells, was used to stain live cells. The use of 8 uM ethidium homodimer (Invitrogen), a nucleic acid stain that is excluded by intact cell membranes, enabled visualization of the nuclei of dead cells. After 96-hour exposure to the appropriate concentration of anthocyanins, chondrocytes were cultured in DMEM supplemented with Calcein AM and ethidium homodimer for 45 minutes. Live and dead cells were counted using an automated image analysis script written in Matlab (MathWorks, Natick, Mass.) to measure percentage cell viability.

The subject of data set [4] is rodent pancreatic beta-cells. The settings on record: in culture, with 4 and 10 mM glucose; cited from earlier work.
A further data set concerns bovine chondrocytes. Description: Matrix synthesis rate (35S) of bovine chondrocytes in alginate beads. It counts as cell-based. The settings on record: 100 uM with TGF-β 10 ng/mL, 24 hours.
The conditions of data set [5]: cited from earlier work.
The conditions of data set [6]: in vitro; cited from earlier work.
The next data set deals with TGF-β. Description: TGF-β by ELISA after exposure of fibroblast cells to dextrose. It counts as cell-based. The settings on record: fibroblasts. Here is the method:
For completeness, the relationship between a saccharide (dextrose) and TGF-β was also examined. Fibroblasts were treated with varying amounts of dextrose and measured for the release of TGF-β. […] It appeared that 0.5% glucose provided the greatest proliferation of fibroblasts.
(In general: ELISA stands for enzyme-linked immunosorbent assay.)

The structures appear in SMILES notation. “Also recorded” adds a separate entry of the source.

As usually defined, the half-life is the time needed for the level to fall by half in the phase considered.

Procedure for bovine chondrocytes: Chondrocytes were isolated from weight-bearing regions of young (18-30 months old) bovine femoral condyles. Primary cells were obtained from 3 different animals and suspended in beads of 2% alginate. The alginate beads were precultured in DMEM supplemented with 10% calf serum for 48 hours. Before the experiments, the chondrocytes were serum-starved overnight with 0.1% serum to reduce the effect of serum and to reduce anabolic activity to baseline.
For each treatment condition, 10 millicuries of ^35S was added to each well and incubated for the appropriate duration. At the appropriate harvest time point, each well was then washed extensively with PBS (5-6 times with 500 uL, of PBS), before trypsin and EDTA was added to dissolve alginate. After 20-30 minutes, the dissolved gels and released cells were transferred into 1.5 ml Eppendorf tubes with 150 uL, of calf serum (to promote pellet formation) and the cells were centrifuged at 2000 rpm for 5 minutes. The supernatant was removed via pipette without disturbing the cell pellet. The remaining cell and supernatant (approximately 300 ul) was then mixed with 500 uL of PBS and transferred to scintillation vials, to which 5 ml of scintillation fluid was dispensed. Each scintillation vial was capped, thoroughly vortexed and then placed in a gamma counter to measure gamma radiation emission for each sample. Each sample was measured for 5 minutes.

For the compound `Oc1cc(O)c2cc(O)c(-c3ccc(O)c(O)c3)[o+]c2c1` [Cyanidin chloride], the non-toxic concentration in data set [1] came out at 100 µM. Moreover, in the data set on IGF-1 (50 ug/mL dose, duplicate, called anomalous), the IGF-1 gene expression entry was “elevated above control”. Moreover, the “IGF-1 gene expression compared to IL-1 alone” value in the data set on IGF-1 was “increased IGF-1 gene expression more than kuromanin; also recorded: greater compared to IL-1 alone when treated with cyanidin alone or in combination with IL-1”. Also, the “chondroprotective activity, greater than under low glucose” value in data set [2] (higher glucose conditions (5%) as printed) is about 20%. Besides, in data set [2] (low glucose levels (2.5%) as printed), the chondroprotective activity result is on record as “some chondroprotective activity”. Also, the “GAG release under basal conditions” value with human cartilage explants is “not evident”. The “IL-1 induced GAG release (chondroprotection)” value is “blocked IL-1 induced GAG release” in the data set with human cartilage explants (listed as CC1), “able to prevent GAG (glycosaminoglycan) release compared to control; also recorded: effective chondroprotective agents limiting the degradation of human cartilage against the catabolic effects of IL-1” in the data set on human cartilage explants (listed as cyanidin) and “chondroprotective; also recorded: blocked” with human cartilage explants (listed as cyanidin chloride). Besides, in [3] (500 uM), the cell viability result is “completely reducing cell viability”. Further, the “toxicity relative to the other compounds tested” value in [3] (concentrations above 100 uM up to 500 uM) was “most toxic”.

In turn, `OC[C@H]1O[C@@H](Oc2cc3c(O)cc(O)cc3[o+]c2-c2ccc(O)c(O)c2)[C@H](O)[C@@H](O)[C@@H]1O.[Cl-]` [Kuromanin chloride] displayed a non-toxic concentration in [1] of 100 µM. Besides, in data set [4], the insulin secretion result is given as “stimulate insulin secretion”. Moreover, the “IGF-1 gene expression compared to IL-1 alone” value in the data set on IGF-1 is on record as “greater compared to IL-1 alone when treated with kuromanin at high dose”. Besides, the IGF-1 gene expression result in the data set with IGF-1 (IL-1 with compound at 5 or 50 ug/mL) is reported as “no further changing in this pattern”. In the data set on bovine chondrocytes, the “matrix synthesis rates (growth factor synergy)” value is recorded as “synergistic effect on matrix synthesis rates”. Moreover, in data set [5], the half-life is 90 to 120 min. The “oxygen radical absorbing capacity compared to Trolox (Vitamin E)” value in data set [6] was 3.5 times. The “GAG release under basal conditions” value in the data set with human cartilage explants is “some catabolic effects that may reflect cell toxicity; also recorded: tendency for the high dose of kuromanin to promote GAG release”. The “IL-1 induced GAG release (chondroprotection)” value in the data set on human cartilage explants is listed as “able to prevent GAG (glycosaminoglycan) release compared to control; also recorded: effective chondroprotective agents limiting the degradation of human cartilage against the catabolic effects of IL-1; also recorded: blocked”; in the data set with human cartilage explants (listed as KuCl), “blocked IL-1 induced GAG release”.

Consider `O=C[C@H](O)[C@@H](O)[C@H](O)[C@H](O)CO` [glucose], for which, in the data set with TGF-β (higher amounts of glucose), the “presence of TGF-β” value was “decreased the presence of TGF-β”. Moreover, in the data set on TGF-β (varying amounts of dextrose), the TGF-β expression result was “does not increase TGF-β expression”.

The values above are taken from patent US9987296B2, “Compositions including anthocyanin or anthocyanidin for the prevention or treatment of Articular cartilage-associated conditions” (priority 2008, dated 2018).
